Experimental data from patent EP4603105A1, “PHARMACEUTICAL COMPOSITION CONTAINING CYCLIC COMPOUND HAVING SELECTIVE KRAS INHIBITORY EFFECT AGAINST HRAS AND NRAS” (CHUGAI SEIYAKU KABUSHIKI KAISHA, priority 2022, dated 2024).
*1 amine or outer side, *2 acyl side, *3 side chain or, on linkers, in order; H or OH if unused. Where a SMILES comes first, the peptide text is derived from it. Bridges are numbered along the chain shown (N, C = ends). [ ]: non-standard residue; d: D form. The star is where a group is joined. hPhe(3-Cl-4-CF3) = N[C@@H](CCc1ccc(C(F)(F)F)c(Cl)c1)C(=O)O; NPrPhe(4-CF3) = CCCN[C@@H](Cc1ccc(C(F)(F)F)cc1)C(=O)O; X45 = CCCN([C@@H](CC1CCC(F)(F)CC1)C(=O)[*:2])[*:1]; NMeGly(cPent) = CN[C@H](C(=O)O)C1CCCC1; NMeD = CN[C@@H](CC(=O)O)C(=O)O; NMeL = CN[C@@H](CC(C)C)C(=O)O; Morpholide = C1CN(*)CCO1; NMeA = CN[C@@H](C)C(=O)O; Ac5c = NC1(C(=O)O)CCCC1; Aze = O=C(O)[C@@H]1CCN1; Abu = CC[C@H](N)C(=O)O; Sar = CNCC(=O)O

What was measured:
[1] = biological target: GDP-bound NRAS wild-type protein (Homo sapiens, UniProt P01111); experiment: Binding to NRAS by surface plasmon resonance (SPR), KD and KD ratio to KRAS
In short: (§1)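 Running buffer contained 10 µM GDP and 10 mM MgCl2 to keep RAS in the GDP state, with 4% DMSO at pH 7.4. Compounds were flowed at 100 µL/min in 75 s steps of rising concentration over captured biotin-Avi RAS at 30°C. Sensorgrams were fitted 1:1 for KD.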

HRAS wild-type protein = HRAS wild-type protein (Homo sapiens, UniProt P01112); experiment: Binding to HRAS by surface plasmon resonance (SPR), KD and KD ratio to KRAS
In short: as §1

[2] = system: human lung cancer strain NCI-H441; format: cell-based
In short: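 Step one: dispense the test compound in serial DMSO dilutions. Step three: add the reagent and measure […].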

[3] = ratio of KD for GDP-bound NRAS wild-type protein to KD for KRAS
[4] = ratio of KD for HRAS wild-type protein to KD for KRAS
[5] = ratio of KD value for GDP-bound NRAS wild-type protein to KD value for KRAS (SPR)
[6] = ratio of KD value for HRAS wild-type protein to KD value for KRAS (SPR)
[7] = ratio of the KD value with respect to GDP-bound NRAS wild-type protein to the KD value with respect to KRAS
[8] = ratio of the KD value with respect to HRAS wild-type protein to the KD value with respect to KRAS

Chain of HRAS wild-type protein (P01112 whole entry): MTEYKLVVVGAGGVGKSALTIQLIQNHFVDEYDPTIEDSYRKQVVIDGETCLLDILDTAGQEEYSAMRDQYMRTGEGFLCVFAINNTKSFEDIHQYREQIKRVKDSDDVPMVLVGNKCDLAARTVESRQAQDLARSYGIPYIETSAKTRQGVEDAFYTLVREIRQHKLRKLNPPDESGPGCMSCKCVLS
Chain of GDP-bound NRAS wild-type protein (P01111 whole entry): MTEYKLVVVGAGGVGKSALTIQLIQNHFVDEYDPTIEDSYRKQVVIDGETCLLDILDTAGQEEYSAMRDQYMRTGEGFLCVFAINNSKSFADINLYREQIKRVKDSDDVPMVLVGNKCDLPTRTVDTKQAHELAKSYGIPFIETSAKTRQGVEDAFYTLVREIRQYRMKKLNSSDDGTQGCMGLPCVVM

Compound	NRAS /KRAS [1, 3]	HRAS /KRAS (HRAS wild-type protein; [4])	IC50 [2] [nM]	other results
CCO[C@@H]1C[C@H]2C(=O)NC3(CCC3)C(=O)N(C)[C@@H](C3CCCC3)C(=O)N(C)[C@H](C(=O)N3CCC3)CC(=O)N(C)[C@@H](CC)C(=O)N[C@@H]([C@@H](C)CC)C(=O)N(C)CC(=O)N(C)[C@H]3C/C=C\CCN(C3=O)[C@@H](Cc3ccc(C(F)(F)F)cc3)C(=O)N(C)CC(=O)N[C@@H](CCc3cc(F)c(C(F)(F)F)c(F)c3)C(=O)N2C1 [PP1091]	A (a compound having 10 or more and less than 20 is denoted as A)	B (a compound having 3 or more and less than 10 is denoted as B)	17.9	–
CCO[C@@H]1C[C@H]2C(=O)NC3(CCCC3)C(=O)N(C)[C@@H](C3CCCC3)C(=O)N(C)[C@H](C(=O)N(C)C)CC(=O)N(C)[C@@H](C)C(=O)N[C@@H]([C@@H](C)CC)C(=O)N(C)CC(=O)N(C)[C@H]3C/C=C\CCN(C3=O)[C@@H](Cc3ccc(C(F)(F)F)cc3)C(=O)N(C)CC(=O)N[C@@H](CCc3cc(F)c(C(F)(F)F)c(F)c3)C(=O)N2C1 [PP1104]	A (a compound having 10 or more and less than 20 is denoted as A)	A (a compound having 10 or more and less than 20 is denoted as A)	44.6	–
CC[C@H](C)[C@@H]1NC(=O)[C@H](CC2CCCC2)N(C)C(=O)C[C@@H](C(=O)N(C)C)N(C)C(=O)[C@H](C2CCCC2)N(C)C(=O)C2(CCC2)NC(=O)[C@@H]2C[C@@H](C(F)(F)F)CN2C(=O)[C@H](CCc2cc(F)c(C(F)(F)F)c(F)c2)NC(=O)CN(C)C(=O)[C@H](Cc2ccc(C(F)(F)F)cc2)N2CC/C=C\C[C@@H](C2=O)N(C)C(=O)CN(C)C1=O [PP1505]	–	–	4	NRAS /KRAS [1, 5]: A (a compound having 10 or more and less than 20 is denoted as A); HRAS /KRAS (HRAS wild-type protein; [6]): A (a compound having 10 or more and less than 20 is denoted as A)
CC[C@H](C)[C@@H]1NC(=O)[C@H](CC(C)C)N(C)C(=O)C[C@@H](C(=O)N2CCOCC2)N(C)C(=O)[C@H](C2CCCC2)N(C)C(=O)C2(CCC2)NC(=O)[C@@H]2C[C@@H](OCCC(F)(F)F)CN2C(=O)[C@H](CCc2cc(F)c(C(F)(F)F)c(F)c2)NC(=O)CN(C)C(=O)[C@H](Cc2ccc(C(F)(F)F)cc2)N2CCCC[C@@H](C2=O)N(C)C(=O)CN(C)C1=O [PP0998]	B (a compound having 3 or more and less than 10 is denoted as B)	B (a compound having 3 or more and less than 10 is denoted as B)	19.7	–
CC[C@H](C)[C@@H]1NC(=O)[C@H](CC(C)C)N(C)C(=O)C[C@@H](C(=O)N2CCOCC2)N(C)C(=O)[C@H](C2CCCC2)N(C)C(=O)C2(CCCCC2)NC(=O)[C@@H]2CCCN2C(=O)[C@H](CCc2cc(F)c(C(F)(F)F)c(F)c2)NC(=O)CN(C)C(=O)[C@H](Cc2ccc(C(F)(F)F)cc2)N2CCCCC[C@@H](C2=O)N(C)C(=O)CN(C)C1=O [PP0498]	–	–	147	NRAS /KRAS [1, 7]: B (a compound having 3 or more and less than 10 is denoted as B); HRAS /KRAS (HRAS wild-type protein; [8]): B (a compound having 3 or more and less than 10 is denoted as B)
CCO[C@@H]1C[C@H]2C(=O)NC3(CC(C)(C)C3)C(=O)N(C)[C@@H](C3CCCC3)C(=O)N(C)[C@H](C(=O)N(C)CC)CC(=O)N(C)[C@@H](COC)C(=O)N[C@@H]([C@@H](C)CC)C(=O)N(C)CC(=O)N(C)[C@H]3C/C=C\CCN(C3=O)[C@@H](Cc3ccc(C(F)(F)F)cc3)C(=O)N(C)CC(=O)N[C@@H](CCc3ccc(Cl)c(Cl)c3)C(=O)N2C1 [PP2835]	A (a compound having 10 or more and less than 20 is denoted as A)	A (a compound having 10 or more and less than 20 is denoted as A)	13	–
CCO[C@@H]1C[C@H]2C(=O)NC3(CCCC3)C(=O)N(C)[C@@H](C3CCCC3)C(=O)N(C)[C@H](C(=O)N3CCOCC3)CC(=O)N(C)[C@@H](CC(C)C)C(=O)N[C@@H]([C@@H](C)CC)C(=O)N(C)CC(=O)N(C)[C@H]3CCCCN(C3=O)[C@@H](Cc3ccc(C(F)(F)F)cc3)C(=O)N(C)CC(=O)N[C@@H](CCc3cc(F)c(C(F)(F)F)c(F)c3)C(=O)N2C1 [PP0554]	–	–	1.6	NRAS /KRAS [1, 7]: B (a compound having 3 or more and less than 10 is denoted as B); HRAS /KRAS (HRAS wild-type protein; [8]): B (a compound having 3 or more and less than 10 is denoted as B)
CCO[C@@H]1C[C@H]2C(=O)NC3(CC(C)(C)C3)C(=O)N(C)[C@@H](C(CC)CC)C(=O)N(C)C(CC)CC(=O)N(C)[C@@H](CC)C(=O)N[C@@H]([C@@H](C)CC)C(=O)N(C)CC(=O)N(C)[C@H]3C/C=C\CCN(C3=O)[C@@H](Cc3ccc(C(F)(F)F)cc3)C(=O)N(C)CC(=O)N[C@@H](CCc3cc(F)c(C(F)(F)F)c(F)c3)C(=O)N2C1 (stereo partly drawn) [PP1622]	–	–	28.1	NRAS /KRAS [1, 5]: A (a compound having 10 or more and less than 20 is denoted as A); HRAS /KRAS (HRAS wild-type protein; [6]): A (a compound having 10 or more and less than 20 is denoted as A)
CCCN1C(=O)CN(C)C(=O)CN(C)C(=O)[C@H]([C@@H](C)CC)NC(=O)[C@H](CC(C)C)N(C)C(=O)C[C@@H](C(=O)N2CCOCC2)N(C)C(=O)[C@H](C2CCCC2)N(C)C(=O)C2(CCCC2)NC(=O)[C@@H]2CCCN2C(=O)[C@H](CCc2ccc(C(F)(F)F)c(Cl)c2)NC(=O)CN(C)C(=O)[C@@H]1CC1CCC(F)(F)CC1 [PP0526] ([NMeL]I[Sar][Sar][X45][Sar][hPhe(3-Cl-4-CF3)]P[Ac5c][NMeGly(cPent)][NMeD]-Morpholide; lactam N-11)	–	–	6.6	NRAS /KRAS [1, 7]: B (a compound having 3 or more and less than 10 is denoted as B); HRAS /KRAS (HRAS wild-type protein; [8]): C (A compound having a KD ratio of 0.1 or more and less than 3 is denoted as C)
CC[C@H](C)[C@@H]1NC(=O)[C@H](CC(C)C)N(C)C(=O)C[C@@H](C(=O)N2CCCCC2)N(C)C(=O)[C@H](C2CCCC2)N(C)C(=O)C2(CCCC2)NC(=O)[C@@H]2CCCN2C(=O)[C@H](CCc2cc(F)c(C(F)(F)F)c(F)c2)NC(=O)CN(C)C(=O)[C@H](Cc2ccc(C(F)(F)F)cc2)N2CCCCC[C@@H](C2=O)N(C)C(=O)CN(C)C1=O [PP0510]	–	–	391	NRAS /KRAS [1, 7]: B (a compound having 3 or more and less than 10 is denoted as B); HRAS /KRAS (HRAS wild-type protein; [8]): B (a compound having 3 or more and less than 10 is denoted as B)
CCO[C@@H]1C[C@H]2C(=O)NC3(CCC3)C(=O)N(C)[C@@H](C3CCCC3)C(=O)N(C)[C@H](C(=O)N(C)CCOC)CC(=O)N(C)[C@@H](CC(C)C)C(=O)N[C@@H]([C@@H](C)CC)C(=O)N(C)CC(=O)N(C)[C@H]3C/C=C\CCN(C3=O)[C@@H](Cc3ccc(C(F)(F)F)cc3)C(=O)N(C)CC(=O)N[C@@H](CCc3ccc(Cl)c(Cl)c3)C(=O)N2C1 [PP1326]	–	–	23.1	NRAS /KRAS ([1]; ratio of KD with respect to GDP-bound NRAS wild-type protein to KD with respect to KRAS): AA (a compound having 20 or more is denoted as AA); HRAS /KRAS (HRAS wild-type protein; ratio of KD with respect to HRAS wild-type protein to KD with respect to KRAS): A (a compound having 10 or more and less than 20 is denoted as A)
CCCN1C(=O)CN(C)C(=O)CN(C)C(=O)[C@H](CC)NC(=O)[C@H](CC(C)C)N(C)C(=O)C[C@@H](C(=O)N2CCOCC2)N(C)C(=O)[C@H](C2CCCC2)N(C)C(=O)C2(CCCC2)NC(=O)[C@@H]2CCCN2C(=O)[C@H](CCc2ccc(C(F)(F)F)c(Cl)c2)NC(=O)CN(C)C(=O)[C@@H]1Cc1ccc(C(F)(F)F)cc1 [PP0248] ([NMeL][Abu][Sar][Sar][NPrPhe(4-CF3)][Sar][hPhe(3-Cl-4-CF3)]P[Ac5c][NMeGly(cPent)][NMeD]-Morpholide; lactam N-11)	B (a compound having 3 or more and less than 10 is denoted as B)	B (a compound having 3 or more and less than 10 is denoted as B)	84	–
CCO[C@@H]1C[C@H]2C(=O)NC3(CCC3)C(=O)N(C)[C@@H](C3CCCC3)C(=O)N(C)[C@H](C(=O)N(C)C)CC(=O)N(C)[C@@H](CC)C(=O)N[C@@H]([C@@H](C)CC)C(=O)N(CC)CC(=O)N(C)[C@H]3C/C=C\CCN(C3=O)[C@@H](Cc3ccc(C(F)(F)F)cc3)C(=O)N(C)CC(=O)N[C@@H](CCc3cc(F)c(C(F)(F)F)c(F)c3)C(=O)N2C1 [PP1052]	A (a compound having 10 or more and less than 20 is denoted as A)	A (a compound having 10 or more and less than 20 is denoted as A)	58.7	–
CCO[C@@H]1C[C@H]2C(=O)NC3(CCC3)C(=O)N(C)[C@@H](C(C)(C)C)C(=O)N(C)[C@H](C(=O)N3CCOCC3)CC(=O)N(C)[C@@H](CC(C)C)C(=O)N[C@@H]([C@@H](C)CC)C(=O)N(C)CC(=O)N(C)[C@H]3CCCCCN(C3=O)[C@@H](Cc3ccc(C(F)(F)F)cc3)C(=O)N(C)CC(=O)N[C@@H](CCc3cc(F)c(C(F)(F)F)c(F)c3)C(=O)N2C1 [PP0823]	A (a compound having 10 or more and less than 20 is denoted as A)	B (a compound having 3 or more and less than 10 is denoted as B)	130	–
CCCN1C(=O)[C@@H]2CCN2C(=O)[C@H](C)N(C)C(=O)[C@H]([C@@H](C)CC)NC(=O)[C@H](CC(C)C)NC(=O)C[C@@H](C(=O)N2CCOCC2)N(C)C(=O)[C@H](C2CCCC2)N(C)C(=O)C2(CCCC2)NC(=O)[C@@H]2CCCN2C(=O)[C@H](CCc2ccc(C(F)(F)F)c(Cl)c2)NC(=O)CN(C)C(=O)[C@@H]1Cc1ccc(C(F)(F)F)cc1 [PP0154] (LI[NMeA][Aze][NPrPhe(4-CF3)][Sar][hPhe(3-Cl-4-CF3)]P[Ac5c][NMeGly(cPent)][NMeD]-Morpholide; lactam N-11)	C (A compound having a KD ratio of 0.1 or more and less than 3 is denoted as C)	B (a compound having 3 or more and less than 10 is denoted as B)	9.9	–
